Assay results from US20040002842A1, “Methods and systems for analyzing complex biological systems” (priority 2001, published 2004).

How the values were obtained:
Format in all cases: cell-based
[1] = test system: Saccharomyces cerevisiae wild type strain BY4743; test: AF1 combined gene expression and metabolite data (reactions, pathways, cluster analysis)
Source text: The data were then combined to determine the number of reactions showing an enzyme and at least one compound perturbed, and to determine the number of pathways having at least one enzyme and one perturbed compound perturbed. The results of the analysis are represented in Tables 16 and 17, and were difficult to interpret, illustrating that the ability to draw conclusions from compound mapping to pathways is limited when absent additional data. […] A coherent data set was created from data obtained from the four above-described drug compounds. The data were reduced by using principle components analysis and cluster analysis.

[2] = test system: Saccharomyces cerevisiae wild type strain BY4743; test: AF1 yeast gene expression analysis (microarray, KEGG pathway mapping); conditions: for # Transcripts perturbed by treatment: 2×MIC, two hours; for Number of Pathways Affected by at Least One Gene, # Pathways: p < 0.05, KEGG mapping
Description: Saccharomyces cerevisiae wild type strain BY4743 was purchased from American Type Culture Center (ATCC, Manassas, Va.). The yeast strain was grown in YPD or SD media. H. […] The cultures started from fresh single colonies were grown in 1.0 ml YPD overnight at 30° C. […] The OD600 was adjusted to 1.0 with YPD media, then 2.0 ml of each was inoculated into three 250 ml flasks, each containing 50 ml of SD media. […] The cells were kept growing for another two hours, then collected by centrifugation at 4000 rpm for 5 minutes at 4° C. Pellets were washed once with ice-cold water, then were lyophilized overnight at 4° C. […] Tubes were vortexed for 30 seconds, then incubated for 10 minutes at room temperature (RT). […] Tubes were incubated for 10 minutes at RT. Samples were centrifuged for 20 minutes as before. Pellets were washed with 400 μl 70% ethanol and centrifuged for 10 minutes as before. The pellet was then dissolved in 100 μl nuclease-free water. RNA quality was determined using the Bioanalyzer 2100 and the RNA 6000 assay (Agilent Technologies, Palo Alto, Calif.) according to manufacturer's instructions. RNA concentrations were determined spectrophotometrically by measuring the absorption at 260 nm in an Ultrospec 2000 (Pharmacia Biotech, Piscataway, N.J.). […] Labeled cRNAs were evaluated using the RNA 6000 assay on the Agilent Bioanalyzer 2100. Labeled cRNA concentrations were determined spectrophotometrically by measuring the absorption at 260 nm in an Ultrospec 2000 (Pharmacia Biotech, Piscataway, N.J.). […] Each pair of samples to be hybridized were independently labeled and hybridized utilizing a fluor reversal for a total of two hybridizations per sample pair. The microarrays were scanned simultaneously in the Cy3 and Cy5 channels with Agilent's 48-slide, Dual Laser DNA Microarray Scanner (Agilent Technologies, Palo Alto, Calif.) at 10 μm resolution using default settings. Image Analysis Software (Version A.4.0.45, Agilent Technologies, Palo Alto, Calif.) was used for image analysis. Each feature was determined from an array's associated pattern file and a detection algorithm. Intensity values for each feature were determined after subtracting background derived from an average of negative control features. Features with unusual pixel intensity statistics (e.g., high non-uniformity, saturation in either channel, and the like) were excluded from downstream analyses. Data was loaded into the Rosetta RESOLVER database (Rosetta Inpharmatics Inc., Kirkland, Wash.) for storage and analysis. Data was evaluated after combining results from fluor reversal replicate hybridizations. The annotation of yeast ORFs was obtained from Proteome BIOKNOWLEDGE Library (Incyte Genomics, Palo Alto, Calif.). In AF1, two different technologies were utilized: gene expression analysis (for examination of mRNA expression) and metabolite analysis. […] As noted previously, existing metabolic databases may be helpful in practicing the methods and systems of the present invention, but many databases include limitations that make their use in data analysis and pathway mapping less than straightforward. […] This caveat to KEGG makes it difficult to pinpoint the correct pathway when attempting to link a gene to a specific pathway. The pathway score indicates how meaningful the mapping is, or how likely it is to be correctly indicative of the pathway involved in the perturbation under examination. The method provides a pathway score based on perturbation levels of genes and/or compounds and the information content of each gene and/or compound in the pathway, i.e., a pathway score indicates the extent to which other pathways are mapped to a gene/compound. For example, imagine that two genes are perturbed in a particular experiment.

[3] = test system: Saccharomyces cerevisiae wild type strain BY4743; test: AF1 yeast metabolite analysis by GC-MS and LC-MS; conditions: for # Compounds perturbed by treatment: 2×MIC, two hours

## CC[C@@H]([C@H](C)O)n1ncn(-c2ccc(N3CCN(c4ccc(OC[C@@H]5CO[C@@](Cn6cncn6)(c6ccc(F)cc6F)C5)cc4)CC3)cc2)c1=O [Posaconazole]
[1]
  Number of Reactions Having an Enzyme and at Least One Compound Perturbed, # Reactions: 0
[2]; P < 0.05
  # Transcripts perturbed by treatment: 690
[2]
  Number of Pathways Affected by at Least One Gene, # Pathways: 69
[3]; P < 0.05
  # Compounds perturbed by treatment: 3
[3]; P < 0.1
  # Compounds perturbed by treatment: 4
[3]; Platform GC
  Fold Change: alanine: 1.035
  Fold Change: asparagine: 0.145
  Fold Change: aspartic acid: −0.071
  Fold Change: campesterol: 0
  Fold Change: desmosterol: 0
  Fold Change: disaccaride1: 0.04733
  Fold Change: disaccaride2: 0.313
  Fold Change: disaccaride3: 0.3407
  Fold Change: ergosterol: 0.808
  Fold Change: fucosterol: 6.722
  Fold Change: glutamine: 0.6439
  Fold Change: glycanopyrose: 1.594
  Fold Change: glycerol: 0.1873
  Fold Change: glycine: 0.08267
  Fold Change: hexadecanoic acid: −0.01867
  Fold Change: iso citric acid: 0.4
  Fold Change: isoleucine: 0.1023
  Fold Change: lanosterol: 7.464
  Fold Change: leucine: 0.334
  Fold Change: lysine: 0.1586
  Fold Change: malic acid: 0.2942
[3]; Platform nLC
  Fold Change: 2-ketobutyric acid: −0.9992
  Fold Change: 2-ketoglutaric: 11.33
  Fold Change: 3-indolylacetonitri: −0.9998
  Fold Change: 4-methylcatechol: 0
  Fold Change: 4aminobutyrate/dimg: −0.008939
  Fold Change: 5hydroxyLtryptophan: 0
  Fold Change: 6-benzylaminopurine: 0
  Fold Change: DLaminoadipic acid: −0.9935
  Fold Change: abscisic acid: 0
  Fold Change: aconitic acid: 1.874
  Fold Change: adenine: 0
  Fold Change: adenosine: 128.3
  Fold Change: alanine: 0.1091
  Fold Change: allantoic acid: 0.3321
  Fold Change: allantoin: 5.97
  Fold Change: anthranilic acid: 0
  Fold Change: arginine: 0.1707
  Fold Change: argininosuccinate: 318.3
  Fold Change: asparagine: 0.006865
  Fold Change: aspartic: 0.305
  Fold Change: benzoic acid: 0
  Fold Change: biotin: −0.9992
  Fold Change: caffeic acid: −0.49
  Fold Change: catechol: 0
  Fold Change: cinnamic acid: 0
  Fold Change: citricanoic/itaconi: 0
  Fold Change: citrulline: 1160
  Fold Change: coumaric acid: 0
  Fold Change: cytidine: −0.9986
  Fold Change: cytosine: 0
  Fold Change: decanoic acid: 0.1263
  Fold Change: diaminopimelic acid: 0
  Fold Change: dihydrofolic acid: 0
  Fold Change: estrone: 0
  Fold Change: farnesol: 0
  Fold Change: folic acid: 0
  Fold Change: fumaric/3m2oxobutan: −0.9997
  Fold Change: gallic acid: 0.4414
  Fold Change: gibberellic: 0
  Fold Change: glucosamine6PO4: −0.9951
  Fold Change: glutamic/acetylseri: 0.3222
  Fold Change: glutamine/lysine: 0.09814
  Fold Change: guanine: 0
  Fold Change: guanosine: −0.993
  Fold Change: histidine: 0
  Fold Change: homogentisic/uric: 0
  Fold Change: hydrocortisone: 0
  Fold Change: hypoxanthine: 0.1751
  Fold Change: indole3pyruvic acid: 0
  Fold Change: inostol/glucos/sorb: −0.493
  Fold Change: isocitric/citric/qu: 1.711
  Fold Change: jasmonic acid: 0
  Fold Change: kinetin: 0
  Fold Change: lactic acid: 0.5987
  Fold Change: lauric acid: 0.9833
  Fold Change: leucine/isoleucine/: 0.03158
  Fold Change: luteolin: 0
  Fold Change: malic acid: 0.3101
  Fold Change: malonic acid: 0
  Fold Change: menthol*: 0.08121
  Fold Change: methionine: 0
[3]; Platform pLC
  Fold Change: 4-aminobenzoic acid: 0
  Fold Change: 4-methylcatechol: 0
  Fold Change: 4ambutyrate/dimglyc: 31.37
  Fold Change: 5hydroxyLtryptophan: 0
  Fold Change: 6benzylaminopurine: 0
  Fold Change: DL-aminoadipic acid: 1.685
  Fold Change: abscisic acid: 0
  Fold Change: adenine: −0.0145
  Fold Change: adenosine: 0
  Fold Change: alanine/sarcosine: 0.1013
  Fold Change: allantoic acid: 0
  Fold Change: anthranilic acid: 0
  Fold Change: arginine: 0.03383
  Fold Change: argininosuccinate: 0
  Fold Change: asparagine: 0.4302
  Fold Change: aspartic acid: 0.3626
  Fold Change: biotin: 0
  Fold Change: caffeine: 0
  Fold Change: citric acid TME: 0
  Fold Change: citrulline: 0.1011
  Fold Change: cytidine: 0
  Fold Change: cytosine: 1135
  Fold Change: diaminopimelic acid: 0
  Fold Change: dihydrofolic acid: 0
  Fold Change: dipicolinic acid: 0
  Fold Change: folic acid: 0
  Fold Change: glucosamine: 0
  Fold Change: glucosamine6PO4: 0
  Fold Change: glutamate: 0.3769
  Fold Change: glutamine/lysine: 0.303
  Fold Change: glutathione: 0.0101
  Fold Change: guanosine: 0.04655
  Fold Change: histidine: 0
  Fold Change: hydrocortisone: 0
  Fold Change: hypoxanthine: 0.135
  Fold Change: itaconic acid dimes: 0
  Fold Change: kinetin: 0
  Fold Change: leucine/isoleucine/: 0.04937
  Fold Change: luteolin: 0
  Fold Change: mannitol: 0.3919
  Fold Change: methionine: −0.3997

## C[C@@H]1[C@H](O)[C@@H](C)/C=C/C=C/C=C/C=C/C=C/C=C/C=C/[C@H](O[C@@H]2O[C@H](C)[C@@H](O)[C@H](N)[C@@H]2O)C[C@@H]2O[C@](O)(C[C@@H](O)C[C@@H](O)[C@H](O)CC[C@@H](O)C[C@@H](O)CC(=O)O[C@H]1C)C[C@H](O)[C@H]2C(=O)O [Amphoteracin B]
[1]
  Number of Reactions Having an Enzyme and at Least One Compound Perturbed, # Reactions: 54
[2]; P < 0.05
  # Transcripts perturbed by treatment: 4363
[2]; P < 0.1
  # Transcripts perturbed by treatment: 4652
[2]
  Number of Pathways Affected by at Least One Gene, # Pathways: 97
[3]; P < 0.05
  # Compounds perturbed by treatment: 16
[3]; P < 0.1
  # Compounds perturbed by treatment: 21
